Test results published in the supplement of paper PMC10307832.

Experiments:
Assay in all cases: relative viability (nuclei count vs DMSO), 5 days (fraction); higher = more cells survive
[1] = compound: CC1=CC(=C(N1C2=CC=C(C=C2)Cl)C)C(=O)CN3CCCCC3 [IU1-47] + Cc1nc(Nc2ncc(C(=O)Nc3c(C)cccc3Cl)s2)cc(N2CCN(CCO)CC2)n1 [Dasatinib] (partner 0.075 µM)
Method in brief: (§1)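 Lung cancer cell lines were pin-tool dosed in 1536-well plates on the day after seeding, with either a lone drug or a fixed anchor-drug dose plus five library-drug doses (not always all listed) in √10 steps. Nuclei were counted on 4× images after 5 days. Relative viability is the ratio of treated-well to vehicle-well nuclei counts, with each value a median of duplicate plates.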

[2] = compound: CC1=CC(=C(N1C2=CC=C(C=C2)Cl)C)C(=O)CN3CCCCC3 [IU1-47] + CS(=O)(=O)CCNCc1ccc(-c2ccc3ncnc(Nc4ccc(OCc5cccc(F)c5)c(Cl)c4)c3c2)o1 [Lapatinib] (partner 2 µM)
Method in brief: as §1

[3] = compound: Cc1nc(C(=O)NCC(=O)O)c(O)c2ccc(Oc3ccccc3)cc12 [FG-4592] + O=C(c1cc(Cc2n[nH]c(=O)c3ccccc23)ccc1F)N1CCN(C(=O)C2CC2)CC1 [Olaparib] (partner 8 µM)
Method in brief: as §1

[4] = compound: Cc1nc(C(=O)NCC(=O)O)c(O)c2ccc(Oc3ccccc3)cc12 [FG-4592] + C[C@@H](Oc1cc(-c2cnn(C3CCNCC3)c2)cnc1N)c1c(Cl)ccc(F)c1Cl [Crizotinib] (partner 1 µM)
Method in brief: as §1

| Cell Line | relative viability ([1]; first compound 0.08 µM) | relative viability ([1]; first compound 0.253 µM) | relative viability ([1]; first compound 0.8 µM) | relative viability ([1]; first compound 8 µM) | relative viability ([2]; first compound 0.08 µM) | relative viability ([2]; first compound 0.253 µM) | relative viability ([2]; first compound 0.8 µM) | relative viability ([2]; first compound 8 µM) | relative viability ([3]; first compound 0.08 µM) | relative viability ([3]; first compound 0.253 µM) | relative viability ([3]; first compound 0.8 µM) | relative viability ([3]; first compound 2.53 µM) | relative viability ([3]; first compound 8 µM) | relative viability ([4]; first compound 0.08 µM) | relative viability ([4]; first compound 0.253 µM) | relative viability ([4]; first compound 0.8 µM) | relative viability ([4]; first compound 2.53 µM) | relative viability ([4]; first compound 8 µM) | relative viability ([2]; first compound 2.53 µM) | relative viability ([1]; first compound 2.53 µM) |
| --- | --- | --- | --- | --- | --- | --- | --- | --- | --- | --- | --- | --- | --- | --- | --- | --- | --- | --- | --- | --- |
| 201T | 0.542 | 0.604 | 0.622 | 0.587 | 1.04 | 1 | 1.05 | 0.957 | 0.841 | 0.794 | 0.843 | 0.878 | 0.827 | 1 | 1.01 | 1.05 | 1.02 | 0.974 |  |  |
| A549 |  |  |  |  | 0.987 | 1.1 | 0.92 | 0.858 | 0.252 | 0.274 |  | 0.44 | 0.385 | 0.631 | 0.736 | 0.87 | 0.831 | 0.826 | 1.08 |  |
| A-427 | 0.851 | 0.656 | 0.728 | 0.642 | 1.01 | 0.994 | 0.977 | 0.873 | 0.687 | 0.731 | 0.718 | 0.689 | 0.705 | 0.801 | 0.899 | 0.923 | 0.933 | 1.01 |  |  |
| ABC-1 | 0.696 | 0.603 | 0.615 | 0.542 | 1.45 | 1.08 | 1.06 | 1.12 | 0.781 | 0.798 |  | 1.13 | 1.07 | 1.28 |  | 1.64 | 1.18 | 1.13 | 0.821 |  |
| BEN | 0.296 | 0.358 | 0.394 | 0.304 | 0.723 | 0.816 | 1.09 | 0.633 | 1.13 | 0.99 | 1.07 | 1.02 | 0.956 | 0.729 | 0.745 | 0.743 | 0.803 | 0.594 | 0.617 |  |
| CAL-12T | 0.413 | 0.388 | 0.436 | 0.344 | 0.683 | 0.765 | 0.744 | 0.763 | 0.63 | 0.67 | 0.727 | 0.764 | 0.687 | 0.664 | 0.62 | 0.753 | 0.677 | 0.585 | 0.591 | 0.263 |
| COR-L23 | 0.517 | 0.504 | 0.585 | 0.551 | 1.19 | 1.12 | 1.07 | 0.892 | 0.331 | 0.358 | 0.358 | 0.3 | 0.369 | 0.574 | 0.571 | 0.833 | 0.679 | 0.638 | 0.92 | 0.537 |
| COR-L 105 | 0.307 | 0.303 | 0.332 | 0.307 | 0.312 | 0.405 | 0.382 | 0.333 | 0.767 | 0.787 | 0.792 | 0.719 | 0.635 | 0.785 | 0.578 | 0.77 | 0.898 | 0.723 | 0.328 | 0.248 |
| Calu-6 |  |  |  |  | 1.14 | 1.23 | 1.11 | 0.94 | 0.543 | 0.575 | 0.653 | 0.56 | 0.648 | 0.753 | 0.811 | 0.855 | 0.832 | 0.707 | 1.18 |  |
| ChaGo-K-1 | 0.524 | 0.557 | 0.707 | 0.544 |  |  |  |  | 0.44 | 0.399 | 0.4 | 0.461 | 0.456 | 1.12 | 1.09 | 1.14 | 1.09 | 0.942 |  | 0.643 |
| EBC-1 |  |  |  |  | 0.214 | 0.216 | 0.218 | 0.205 | 0.83 | 0.663 | 0.718 | 0.659 | 0.662 | 0.189 | 0.186 | 0.178 | 0.19 | 0.222 | 0.226 |  |
| EKVX | 0.564 | 0.577 | 0.691 | 0.389 | 0.214 | 0.27 | 0.199 | 0.219 | 0.748 | 0.844 | 0.721 | 0.901 | 0.905 | 1.08 | 0.816 | 1.23 | 0.977 | 1.02 | 0.214 | 0.34 |
| EMC-BAC-2 | 0.373 | 0.336 | 0.356 | 0.326 | 0.947 | 0.944 | 0.966 | 0.879 | 0.469 | 0.491 | 0.456 | 0.49 | 0.492 | 0.736 | 0.749 | 0.813 | 0.772 | 0.731 | 0.955 | 0.324 |
| EPLC-272H | 0.371 | 0.459 | 0.322 | 0.35 | 1.16 | 0.925 | 0.965 | 0.528 | 0.665 | 0.633 | 0.886 | 0.74 | 0.697 | 0.844 | 0.72 | 0.631 | 0.888 | 0.873 |  |  |
| H3255 | 0.371 | 0.491 | 0.385 | 0.387 | 0.242 | 0.242 | 0.256 | 0.246 | 0.586 | 0.546 | 0.611 | 0.629 | 0.622 | 0.963 | 0.79 | 0.827 | 0.917 | 1.05 | 0.238 | 0.366 |
| HARA | 0.273 | 0.184 | 0.325 | 0.276 | 0.849 | 0.817 | 0.884 | 0.563 |  |  |  | 0.738 | 0.987 | 1.06 | 0.967 |  | 1 | 0.977 | 0.694 |  |
| HCC-15 | 0.687 | 0.749 | 0.685 | 0.519 | 0.897 | 0.854 | 0.999 | 0.798 | 0.684 | 0.709 | 0.741 | 0.615 | 0.719 | 0.819 | 0.712 | 0.808 | 0.866 | 0.875 | 0.677 | 0.564 |
| HCC-44 |  |  |  |  | 0.985 | 1.03 | 1.07 | 0.825 | 0.971 | 0.921 | 1.03 | 1 | 1.01 | 0.754 | 0.798 | 0.878 | 0.805 | 0.82 | 1.05 |  |
